The nature of data set [1]: Stability of Tam-labeled peptides in HEK-293 cell culture supernatant. Format: in vitro ADME. The settings on record: for half-life at 10 μM: DMEM with 15% FBS on HEK-293 cells. As to the method: The cells were grown under standard conditions. […] The medium was replaced with the peptide solutions.
Data set [2] can be described thus: Stability of Tam-labeled peptides in human blood plasma (RP-HPLC fluorescence, MALDI-ToF-MS). The settings on record: for half-life at 10 μM / remaining at 72 h, 10 μM: human.
Procedure: (§1) Peptide solutions were diluted as described above and incubated at 37 °C. Samples were precipitated in 2× ACN/EtOH (1:1, v/v) at −20 °C overnight and filtered through Costar Spin-X tubes. The solutions of Tam-labeled peptides diluted with H2O (1:1, v/v) were analyzed by RP-HPLC using a linear gradient of eluent B (0.1% TFA in H2O) in eluent A (0.08% TFA in ACN) over 40 min at 40 °C on a VariTide RPC column (250 mm × 4.6 mm, 200 Å, 6 μm, flow rate 1 mL/min, Agilent Technologies). The relative amount of intact peptide was determined by fluorescence intensity (extinction 525 nm, emission 572 nm). Half-life was calculated by one-phase decay in Prism 10. Furthermore, eluting peptides were collected, lyophilized, and analyzed by MALDI-ToF-MS.
Data set [3] in a line: Stability of Tam-labeled peptides in Calu-3 cell culture supernatant.
Procedure: as §1
HEK-293 cells were cultivated under standard conditions in Dulbecco’s modified Eagle’s medium (DMEM, Biowest)/Ham’s F12 (Biowest, 1:1, v/v) with 15% fetal bovine serum (FBS, Sigma-Aldrich). HEK-293 cells were detached with trypsin/ethylenediaminetetraacetic acid (Lonza) and seeded in a poly-D-lysine hydrobromide (Merck, 0.1 mg/mL)-coated 96-well cell culture microplate (Greiner Bio-One, 100,000 cells/well). The cells were grown under standard conditions. […] Cell differentiation was supported by culturing cells on an air–liquid interface for 10–14 days and monitored by measurement of transepithelial electrical resistance. […]
Data set [4] is described as follows: HEK-293 supernatant (phenol red-free DMEM with 15% FBS). The settings on record: up to 72 h.
A short description of data set [5]: human blood plasma/DPBS (1:1). The settings on record: 37 °C, up to 72 h.

Non-standard residues stand in square brackets, D forms with d. Residues, ends and D or L forms follow the SMILES beside them. *: point of attachment. X1 = CN(C)c1ccc2c(c1)Oc1cc(N(C)C)ccc1C21OC(=O)c2ccc(C(=O)*)cc21; Bip = N[C@@H](Cc1ccc(-c2ccccc2)cc1)C(=O)O; Lauroyl = CCCCCCCCCCCC(=O)* Bounds are passed on as bounds.

As usually defined, the half-life is how long it takes for the measured level to halve. Read a high half-life as slow decline. The term fraction remaining denotes what is left of the initial amount, in per cent. High values mean less turnover, low ones more turnover. Turning to `CCCCCCCCCCCC(=O)NCCCC[C@H](N)C(=O)N[C@H](C(=O)N[C@@H](CC(N)=O)C(=O)N1CCC[C@H]1C(=O)N[C@@H](CCCCNC(=O)c1ccc2c(c1)C1(OC2=O)c2ccc(N(C)C)cc2Oc2cc(N(C)C)ccc21)C(=O)N[C@@H](Cc1ccc(-c2ccccc2)cc1)C(=O)N[C@@H](CCCNC(=N)N)C(=O)N[C@@H](CC(C)C)C(=O)N[C@@H](CCCNC(=N)N)C(=O)N[C@@H](Cc1ccc(O)cc1)C(N)=O)[C@@H](C)CC` [peptide 2, [K^27(Lau),K^31(Tam)]-sNPY(27–36)] (H-K(Lauroyl)INPK(X1)[Bip]RLRY-NH2; N-terminus assumed), in data set [1] (human, 10 μM peptide), the half-life at 10 μM is 1400 min. Further, in data set [2] (plasma), the half-life at 10 μM was 0.133 days and the share remaining at 72 h, 10 μM stood at 3%. In addition, the “stability in Calu-3 supernatant compared to HEK-293 supernatant” value in data set [3] is on record as “only slightly lower”.

With `CCCCCCCC(=O)NC[C@H](NC(=O)[C@H](CO)NC(=O)CN)C(=O)N[C@@H](Cc1ccccc1)C(=O)N[C@@H](CC(C)C)C(=O)N[C@@H](CO)C(=O)N1CCC[C@H]1C(=O)N[C@@H](CCC(=O)O)C(=O)N[C@@H](Cc1c[nH]cn1)C(=O)N[C@@H](CCC(N)=O)C(=O)N[C@@H](CCCNC(=N)N)C(=O)N[C@H](C(=O)N[C@@H](CCC(N)=O)C(=O)N[C@@H](CCC(N)=O)C(=O)N[C@@H](CCCNC(=N)N)C(=O)N[C@@H](CCCCNC(=O)c1ccc2c(c1)C1(OC2=O)c2ccc(N(C)C)cc2Oc2cc(N(C)C)ccc21)C(=O)N[C@@H](CCC(=O)O)C(=O)N[C@@H](CO)C(=O)N[C@@H](CCCCN)C(=O)N[C@@H](CCCCN)C(=O)N1CCC[C@H]1C(=O)N1CCC[C@H]1C(=O)N[C@@H](C)C(=O)N[C@@H](CCCCN)C(=O)N[C@@H](CC(C)C)C(=O)N[C@@H](CCC(N)=O)C(=O)N1CCC[C@H]1C(=O)N[C@@H](CCCNC(=N)N)C(=O)O)C(C)C` [peptide 3, [Dpr^3,K^16(Tam)]-Ghr], the half-life at 10 μM was 3430 min in data set [1] (human, 10 μM peptide); 2.1 days in data set [2] (human blood plasma diluted with DPBS (1:1), blood plasma half-life, human blood plasma/DPBS (1:1), 10 μM peptide, 37 °C, one-phase decay); 2.39 days in data set [2] (human blood plasma diluted with DPBS (1:1), donor plasma 3, half-life in plasma 3, donor comparison, plasma 3, plasma/DPBS (1:1), 10 μM, 37 °C).

Turning to `CCCCCCCC(=O)NC[C@H](NC(=O)[C@H](CO)NC(=O)CN)C(=O)N[C@@H](Cc1ccccc1)C(=O)N[C@@H](CC(C)C)C(=O)N[C@@H](CO)C(=O)N1CCC[C@H]1C(=O)N[C@@H](CCC(=O)O)C(=O)N[C@@H](Cc1c[nH]cn1)C(=O)N[C@@H](CCC(N)=O)C(=O)N[C@@H](CCCNC(=N)N)C(=O)N[C@H](C(=O)N[C@@H](CCC(N)=O)C(=O)N[C@@H](CCC(N)=O)C(=O)N[C@@H](CCCNC(=N)N)C(=O)N[C@@H](CCCCNC(=O)c1ccc2c(c1)C1(OC2=O)c2ccc(N(C)C)cc2Oc2cc(N(C)C)ccc21)C(=O)N[C@@H](CCC(=O)O)C(=O)N[C@@H](CO)C(=O)N[C@@H](CCCCN)C(=O)N[C@@H](CCCCNC(=O)CCCCCCCCCCCCCCCCC(=O)O)C(=O)N1CCC[C@H]1C(=O)N1CCC[C@H]1C(=O)N[C@@H](C)C(=O)N[C@@H](CCCCN)C(=O)N[C@@H](CC(C)C)C(=O)N[C@@H](CCC(N)=O)C(=O)N1CCC[C@H]1C(=O)N[C@@H](CCCNC(=N)N)C(=O)O)C(C)C` [peptide 4, [Dpr^3,K^16(Tam),K^20(Odd)]-Ghr], in data set [1] (HPLC eluents), the “cleavage products detected by MALDI-ToF MS, HEK-293 supernatant” value is “no cleavage was observed”. In data set [1] (human, HEK-293 cell culture supernatant, 10 μM peptide, DMEM with 15% FBS, 72 h, read-out: degradation over 72 h in HEK-293 supernatant), the metabolised at 72 h, 10 μM was under 10%. Besides, the “cleavage products detected by MALDI-ToF MS, blood plasma” value in data set [2] (HPLC eluents) is listed as “no cleavage was observed”. The same compound showed an amount remaining at 72 h, 10 μM in data set [2] (human blood plasma) of about 90%. Besides, in data set [3] (HPLC eluents), the “cleavage products detected by MALDI-ToF MS, Calu-3 supernatant” value is “strong C- and N-terminal truncation”.

Take “GS-Dpr(Oct)-FLSPEHQRVQQRK(Tam)ESKK(Odd)PPAKLQPR”: the not cleaved entry is listed as “degradation of less than 10% over 72 h” in data set [4] and “around 90% intact peptide after 72 h” in data set [5].

The values above are taken from paper PMC11555501 (ACS Pharmacology & Translational Science, 2024).
